US20260209214A1, “LSD1 MODULATORS” (RECURSION PHARMACEUTICALS, INC., priority 2022, published 2026)
Where a name gives a salt, the structure may show the parent alone.

Biological target: Recombinant human LSD1 (Homo sapiens, UniProt O60341)
Assay: LSD1 inhibition assay (HTRF LSD1 Histone H3K4 mono-demethylation assay, me1->me0)
Assay type: biochemical
Settings: 20 nM recombinant human LSD1, 95 nM H3K4(me1) biotinylated peptide, 15 min preincubation, 60 min at 25° C., read-out: LSD1 inhibition IC50 (nM range)
Protocol: LSD1 biochemical activity was measured using the HTRF® LSD1 Histone H3K4 mono-demethylation assay (me1->me0). Briefly, the enzymatic buffer was prepared by addition of 50 mM Tris-HCl (Sigma cat #T2663-IL), 50 mM NaCl (ThermoFisher cat #AM9759) and 0.01% Tween 20 (ThermoFisher cat #J20605.AP) in distilled water (final pH 8.5). This buffer was supplemented with 10 μM FAD (Fisher Scientific cat #11411838) and 1 mM DTT (Sigma cat #D0632). For the assay, H3K4(me1) biotinylated peptide substrate (Anaspec, cat #64355) was added to provide a final assay concentration of 95 nM. The streptavidin-XL665 (Cisbio cat #610SAXLA) and H3K4 me0-Eu(K) antibody-cryptate (Cisbio, cat #61 KAOKAD) detection reagents were mixed according to the manufacturer's instructions. Test compounds were diluted in DMSO in a series of 10 semi-log step doses; 10 nL of each compound dose were dispensed in 384 well plates. Recombinant human LSD1 was diluted into enzymatic buffer to provide a final assay concentration of 20 nM and added to the tested compounds for 15 minutes. The reaction was started by addition of the substrate and incubated at 25° C. for 60 minutes. The detection reagents were added, and the plate was incubated in the dark for 90 minutes. Fluorescence was measured on an Envision 2103 plate reader with optical setup for […] in the HTRF mode. The ratio of acceptor and donor emission signals was calculated for each well. Percent inhibition values were calculated from the HTRF ratios at different doses and fitted to a 4-parameter logistic curve to determine IC50 values. […]

Row | Compound | IC50 [nM]
1 | Cc1c(CN2[C@@H]3CC[C@H]2[C@@H](N)C3)cccc1-c1ccc(C#N)c(F)c1 (racemic) [Example 306, 3'-{[(1S,2S,4R)-2-amino-7-azabicyclo[2.2.1]heptan-7-yl]methyl}-3-fluoro-2'-methyl-[1,1'-biphenyl]-4-carbonitrile] | 100 to 1000
2 | CC1(c2c(CN3[C@@H]4CC[C@H]3[C@@H](N)C4)cccc2-c2ccc(C#N)c(F)c2)CC1 (racemic) [Example 307, 3'-{[(1S,2S,4R)-2-amino-7-azabicyclo[2.2.1]heptan-7-yl]methyl}-3-fluoro-2'-(1-methylcyclopropyl)-[1,1'-biphenyl]-4-carbonitrile] | 100 to 1000
3 | N#Cc1ccc(-c2cc(CN3[C@@H]4CC[C@H]3[C@@H](N)C4)ccc2C2CC2)cc1F (racemic) [Example 309, 5'-{[(1S,2S,4R)-2-amino-7-azabicyclo[2.2.1]heptan-7-yl]methyl}-2'-cyclopropyl-3-fluoro-[1,1'-biphenyl]-4-carbonitrile] | 10 to 25
4 | N#Cc1ccc(-c2cc(CN3[C@@H]4CC[C@H]3[C@@H](N)C4)ccc2OC(F)F)cc1F (racemic) [Example 310, 5'-{[(1S,2S,4R)-2-amino-7-azabicyclo[2.2.1]heptan-7-yl]methyl}-2'-(difluoromethoxy)-3-fluoro-[1,1'-biphenyl]-4-carbonitrile] | 10 to 25
5 | N#Cc1ccc(-c2cc(CN3[C@@H]4CC[C@H]3[C@@H](N)C4)ccc2OCC2CC2)cc1F (racemic) [Example 311, 5'-{[(1S,2S,4R)-2-amino-7-azabicyclo[2.2.1]heptan-7-yl]methyl}-2'-(cyclopropylmethoxy)-3-fluoro-[1,1'-biphenyl]-4-carbonitrile] | 10 to 25
6 | N#Cc1ccc(-c2cc(CN3[C@@H]4CC[C@H]3[C@@H](N)C4)ccc2OC2CCC2)cc1F (racemic) [Example 312, 5'-{[(1S,2S,4R)-2-amino-7-azabicyclo[2.2.1]heptan-7-yl]methyl}-2'-cyclobutoxy-3-fluoro-[1,1'-biphenyl]-4-carbonitrile] | 10 to 25
7 | N#Cc1ccc(-c2cc(CN3[C@@H]4CC[C@H]3[C@@H](N)C4)ccc2COC(F)F)cc1F (racemic) [Example 313, 5'-{[(1S,2S,4R)-2-amino-7-azabicyclo[2.2.1]heptan-7-yl]methyl}-2'-[(difluoromethoxy)methyl]-3-fluoro-[1,1'-biphenyl]-4-carbonitrile] | 10 to 25
8 | N#Cc1ccc(-c2cc(CN3[C@@H]4CC[C@H]3[C@@H](N)C4)ccc2-c2ccns2)cc1F (racemic) [Example 314, 5'-{[(1S,2S,4R)-2-amino-7-azabicyclo[2.2.1]heptan-7-yl]methyl}-3-fluoro-2'-(1,2-thiazol-5-yl)-[1,1'-biphenyl]-4-carbonitrile] | 10 to 25
9 | N#Cc1ccc(-c2cc(CN3[C@@H]4CC[C@H]3[C@@H](N)C4)ccc2OCCC(F)F)cc1F (racemic) [Example 315, 5'-{[(1S,2S,4R)-2-amino-7-azabicyclo[2.2.1]heptan-7-yl]methyl}-2'-(3,3-difluoropropoxy)-3-fluoro-[1,1'-biphenyl]-4-carbonitrile] | < 10
10 | N#Cc1ccc(-c2cc(CN3[C@@H]4CC[C@H]3[C@@H](N)C4)ccc2OCC(F)(F)F)cc1F (racemic) [Example 316, 5'-{[(1S,2S,4R)-2-amino-7-azabicyclo[2.2.1]heptan-7-yl]methyl}-3-fluoro-2'-(2,2,2-trifluoroethoxy)-[1,1'-biphenyl]-4-carbonitrile] | 10 to 25
11 | COc1cnc(-c2ccc(CN3[C@@H]4CC[C@H]3[C@@H](N)C4)cc2-c2ccc(C#N)c(F)c2)cn1 (racemic) [Example 317, 5'-{[(1S,2S,4R)-2-amino-7-azabicyclo[2.2.1]heptan-7-yl]methyl}-3-fluoro-2'-(5-methoxypyrazin-2-yl)-[1,1'-biphenyl]-4-carbonitrile] | 10 to 25
12 | N#Cc1ccc(-c2cccc(CN3[C@@H]4CC[C@H]3[C@H](N)C4)c2C2CC2)cc1F (racemic) [Example 319, 3'-{[(1S,2R,4R)-2-amino-7-azabicyclo[2.2.1]heptan-7-yl]methyl}-2'-cyclopropyl-3-fluoro-[1,1'-biphenyl]-4-carbonitrile] | 25 to 100
13 | COCc1c(CN2[C@@H]3CC[C@H]2[C@@H](N)C3)cccc1-c1ccc(C#N)c(F)c1 (racemic) [Example 320, 3'-{[(1S,2S,4R)-2-amino-7-azabicyclo[2.2.1]heptan-7-yl]methyl}-3-fluoro-2'-(methoxymethyl)-[1,1'-biphenyl]-4-carbonitrile] | 100 to 1000
14 | C[C@@H]1CCN(Cc2cccc(-c3ccc(C#N)c(F)c3)c2Cl)C[C@H]1N (racemic) [Example 331, 3'-{[(3S,4R)-3-amino-4-methylpiperidin-1-yl]methyl}-2'-chloro-3-fluoro-[1,1'-biphenyl]-4-carbonitrile] | > 1000
15 | N#Cc1ccc(-c2cccc(C[C@H]3CNCCO3)c2-c2ccns2)cc1 (single isomer, unassigned) [Example 5, hydrochloride] | 10 to 25
16 | N#Cc1ccc(-c2cc(F)cc(C[C@H]3CNCCO3)c2-c2ccns2)cc1F (single isomer, unassigned) [Example 6] | 10 to 25
17 | N#Cc1ccc(-c2cccc(C[C@@H]3CNCCO3)c2-c2ccno2)cc1 (single isomer, unassigned) [Example 7] | 10 to 25
18 | N#Cc1ccc(-c2cccc(C[C@@H]3CNCCO3)c2C2=CCOC2)cc1F (single isomer, unassigned) [Example 8] | < 10
19 | N#Cc1ccc(-c2cccc(C[C@H]3CNCCO3)c2-c2ccno2)cc1 (single isomer, unassigned) [Example 9] | 10 to 25

Row | Compound | IC50 [nM]
20 | N#Cc1ccc(-c2cccc(C[C@@H]3CNCCO3)c2-c2ccns2)cc1 (single isomer, unassigned) [Example 11] | 10 to 25
21 | N#Cc1ccc(-c2cccc(C[C@@H]3CNCCO3)c2-c2ccno2)cc1F (single isomer, unassigned) [Example 13] | 10 to 25
22 | N#Cc1ccc(-c2cc(F)cc(C[C@@H]3CNCCO3)c2-c2ccns2)cc1F (single isomer, unassigned) [Example 14] | 10 to 25
23 | N#Cc1ccc(-c2cccc(C[C@H]3CNCCO3)c2-c2ccno2)cc1F (single isomer, unassigned) [Example 17] | 10 to 25
24 | N#Cc1ccc(-c2cccc(C[C@H]3CNCCO3)c2C2=CCOC2)cc1F (single isomer, unassigned) [Example 22] | 10 to 25
25 | N#Cc1ccc(-c2cccc(C[C@@H]3CNCCO3)c2-c2cncs2)cc1F (single isomer, unassigned) [Example 23] | 10 to 25
26 | N#Cc1ccc(-c2cccc(C[C@@H]3CNCCO3)c2-c2ocnc2F)cc1F (single isomer, unassigned) [Example 26] | < 10
27 | N#Cc1ccc(-c2cccc(C[C@H]3CNCCO3)c2-c2cncs2)cc1F (single isomer, unassigned) [Example 30] | 10 to 25
28 | N#Cc1ccc(-c2cccc(C[C@H]3CNCCO3)c2-c2scnc2Cl)cc1F (single isomer, unassigned) [Example 31] | 25 to 100
29 | N#Cc1ccc(-c2cccc(C[C@@H]3CNCCO3)c2-c2scnc2Cl)cc1F (single isomer, unassigned) [Example 37] | 10 to 25
30 | N#Cc1ccc(-c2cc(C[C@@H]3CNCCO3)ccc2N2CCC2)cc1F (single isomer, unassigned) [Example 41] | 100 to 1000
31 | N#Cc1ccc(-c2cc(C[C@H]3CNCCO3)ccc2N2CCC2)cc1F (single isomer, unassigned) [Example 54] | 100 to 1000
32 | Cc1cc(NC[C@@H]2CNCCO2)c(Cl)c(-c2ccc(C#N)c(F)c2)c1 (single isomer, unassigned) [Example 87] | > 1000
33 | N#Cc1ccc(-c2ccc(F)c(CN3[C@H]4CC[C@@H]3[C@H](N)C4)c2OC(F)F)cc1F (single isomer, unassigned) [Example 169] | 10 to 25
34 | CN[C@@H]1C[C@@H]2CC[C@H]1N2Cc1cccc(-c2ccc(C#N)cc2)c1-c1ccns1 (single isomer, unassigned) [Example 173] | < 10
35 | CN[C@@H]1C[C@@H]2CC[C@H]1N2Cc1cccc(-c2ccc(C#N)c(F)c2)c1C1CC1 (single isomer, unassigned) [Example 178] | 10 to 25
36 | CN[C@H]1C[C@H]2CC[C@@H]1N2Cc1cccc(-c2ccc(C#N)cc2)c1-c1ccns1 (single isomer, unassigned) [Example 182] | < 10
37 | N#Cc1ccc(-c2cccc(CN3[C@@H]4CC[C@H]3[C@@H](N)C4)c2OC(F)F)cc1F (single isomer, unassigned) [Example 183] | < 10
38 | N#Cc1ccc(-c2cccc(CN3[C@H]4CC[C@@H]3[C@H](N)C4)c2C2CC2)cc1F (single isomer, unassigned) [Example 186] | 10 to 25
